Converted amounts (≈) assume the structure as drawn.
Assays:
Type in all cases: functional
Vero = test: In vitro antiviral activity against herpes simplex virus type-1 in vero cells; details: Chlorocebus sabaeus, read-out: ID50 (the source's name)
L1210 [1] = test: In vitro cytotoxicity against L1210 cells at a dose 10 ug/mL; details: Mus musculus, read-out: Survival
L1210 [2] = test: In vitro cytotoxicity against L1210 cells at a dose 50 ug/mL; details: Mus musculus, read-out: Survival
L1210 [3] = test: Effective dose against L1210 cells.; details: Mus musculus, read-out: ED50 (the source's name)

In the case of `Nc1nc2c(ncn2COCCO)c(=O)[nH]1` [ACYCLOVIR], the IC50 (Vero) is reported as 0.01 µg/mL (≈ 0.0444 µM).

Compound `CCOC(=O)C(I)C(O)c1cn([C@H]2C[C@H](O)[C@@H](CO)O2)c(=O)[nH]c1=O` (stereo partly specified) has a viability at 10 µg/mL (L1210 [1]) of 73.2%, a viability at 50 µg/mL (L1210 [2]) of 10.4% and an IC50 (Vero) of 0.1 µg/mL (≈ 0.213 µM).

`N[C@@H](Cc1ccc(N(CCCl)CCCl)cc1)C(=O)O` [MELPHALAN] gave an EC50 (L1210 [3]) of 0.15 µg/mL (≈ 0.491 µM), a viability at 10 µg/mL (L1210 [1]) of 2.8% and a viability at 50 µg/mL (L1210 [2]) of 0%.

`CCOC(=O)C(Br)C(O)c1cn([C@H]2C[C@H](O)[C@@H](CO)O2)c(=O)[nH]c1=O` (stereo partly specified) showed an EC50 (L1210 [3]) of 11 µg/mL (≈ 26 µM), a viability at 10 µg/mL (L1210 [1]) of 49.7% and a viability at 50 µg/mL (L1210 [2]) of 4.9%. For the same compound, the IC50 (Vero) was 1 µg/mL (≈ 2.36 µM).

With `COC(CCl)c1cn([C@H]2C[C@H](O)[C@@H](CO)O2)c(=O)[nH]c1=O` (stereo partly specified) the viability at 10 µg/mL (L1210 [1]) was 75%, the viability at 50 µg/mL (L1210 [2]) was 38.8% and the IC50 (Vero) was > 10 µg/mL.

`COC(CBr)c1cn([C@H]2C[C@H](O)[C@@H](CO)O2)c(=O)[nH]c1=O` (stereo partly specified) showed a viability at 10 µg/mL (L1210 [1]) of 80.8%, a viability at 50 µg/mL (L1210 [2]) of 11.7% and an IC50 (Vero) of 0.1 µg/mL (≈ 0.274 µM).

`O=c1[nH]c(=O)n([C@H]2C[C@H](O)[C@@H](CO)O2)cc1C(O)CBr` (stereo partly specified) was tested, and the viability at 10 µg/mL (L1210 [1]) was 65.5%, the viability at 50 µg/mL (L1210 [2]) was 23.7% and the IC50 (Vero) was > 10 µg/mL.

In the case of `O=c1[nH]c(=O)n([C@H]2C[C@H](O)[C@@H](CO)O2)cc1C(Br)C(O)I.O=c1[nH]c(=O)n([C@H]2C[C@H](O)[C@@H](CO)O2)cc1C(O)C(Br)I` (stereo partly specified), the viability at 10 µg/mL (L1210 [1]) is reported as 79.2%, the viability at 50 µg/mL (L1210 [2]) is reported as 40.1% and the IC50 (Vero) is reported as > 10 µg/mL.

In the case of `O=c1[nH]c(=O)n([C@H]2C[C@H](O)[C@@H](CO)O2)cc1C(O)CCl` (stereo partly specified), the viability at 10 µg/mL (L1210 [1]) is reported as 74%, the viability at 50 µg/mL (L1210 [2]) is reported as 24.3% and the IC50 (Vero) is reported as 0.1 µg/mL (≈ 0.326 µM).
